pEC50, pIC50: −log10 of the molar value. Values after ≈ are worked out from the molar mass of the structure shown.
What was measured:
[1] = tested on: Hepatitis C virus; assay: Antiviral activity against Hepatitis C virus genotype 1b infected in human HuH7 cells after 48 hrs by luciferase reporter gene assay; assay type: functional, organism-based, Hepacivirus hominis; settings: Huh-7, 48 h
[2] = tested on: Hepatitis C virus; assay: Antiviral activity against Hepatitis C virus genotype 1a infected in human HuH7 cells after 48 hrs by luciferase reporter gene assay; assay type: functional, organism-based, Hepacivirus hominis; settings: subtype 1a, Huh-7, 48 h
[3] = biological target: T1, Voltage-gated inwardly rectifying potassium channel KCNH2 (Homo sapiens, UniProt Q12809); assay: Inhibition of human ERG expressed in HEK293 cells; assay type: cell-based
[4] = Plasma protein binding in human at 5 uM after 4 hrs by rapid equilibrium dialysis technique; assay type: ADME, cell-free; settings: read-out: PPB (converted)
[5] = Cmax in CD rat at 30 mg/kg by LC/MS/MS analysis; assay type: ADME, organism-based; set-up: dose 30 mg/kg; settings: in vivo
[6] = Aqueous solubility of the compound at pH 6.8; assay type: physicochemical
[7] = AUC in CD rat at 100 mg/kg by LC/MS/MS analysis; assay type: ADME, organism-based; set-up: dose 100 mg/kg; settings: plasma
[8] = AUC in CD rat at 1 mg/kg, po by LC/MS/MS analysis; assay type: ADME, organism-based; set-up: dose 1 mg/kg, route oral; settings: plasma
[9] = AUC in beagle dog at 1 mg/kg, po by LC/MS/MS analysis; assay type: ADME, organism-based, Canis lupus familiaris; set-up: dose 1 mg/kg, route oral; settings: plasma
[10] = Intrinsic clearance in CD rat microsomes; assay type: ADME, Microsome
[11] = Volume of distribution in CD rat at 0.5 mg/kg, iv by LC/MS/MS analysis; assay type: ADME, organism-based; set-up: dose 0.5 mg/kg, route intravenous; settings: in vivo
[12] = Clearance in CD rat at 0.5 mg/kg, iv by LC/MS/MS analysis; assay type: ADME, organism-based; set-up: dose 0.5 mg/kg, route intravenous; settings: in vivo
[13] = Cmax in CD rat at 10 mg/kg by LC/MS/MS analysis; assay type: ADME, organism-based; set-up: dose 10 mg/kg; settings: in vivo
[14] = AUC in CD rat at 30 mg/kg by LC/MS/MS analysis; assay type: ADME, organism-based; set-up: dose 30 mg/kg; settings: plasma
[15] = Oral bioavailability in CD rat at 1 mg/kg by LC/MS/MS analysis; assay type: ADME, organism-based; settings: in vivo
[16] = Intrinsic clearance in beagle dog microsomes; assay type: ADME, Canis lupus familiaris, Microsome
[17] = Inhibition of Hepatitis C virus genotype 1b NS5B; set-up: species or system Hepatitis C virus subtype 1b
[18] = Oral bioavailability in beagle dog at 1 mg/kg by LC/MS/MS analysis; assay type: ADME, organism-based, Canis lupus familiaris; settings: in vivo
[19] = Clearance in beagle dog at 1 mg/kg, iv by LC/MS/MS analysis; assay type: ADME, organism-based, Canis lupus familiaris; set-up: dose 1 mg/kg, route intravenous; settings: in vivo
[20] = Inhibition of Hepatitis C virus genotype 1b NS3; set-up: species or system Hepatitis C virus subtype 1b
[21] = Half life in CD rat at 0.5 mg/kg, iv by LC/MS/MS analysis; assay type: ADME, organism-based; set-up: dose 0.5 mg/kg, route intravenous; settings: in vivo
[22] = Cmax in CD rat at 300 mg/kg by LC/MS/MS analysis; assay type: ADME, organism-based; set-up: dose 300 mg/kg; settings: in vivo
[23] = Cytotoxicity against human HepG2 cells after 48 hrs by WST assay; assay type: cell-based
[24] = Volume of distribution in beagle dog at 1 mg/kg, iv by LC/MS/MS analysis; assay type: ADME, organism-based, Canis lupus familiaris; set-up: dose 1 mg/kg, route intravenous; settings: in vivo
[25] = Cytotoxicity against human HuH7 cells after 48 hrs by WST assay; assay type: cell-based, Huh-7
[26] = AUC in CD rat at 300 mg/kg by LC/MS/MS analysis; assay type: ADME, organism-based; set-up: dose 300 mg/kg; settings: plasma
[27] = Cmax in CD rat at 100 mg/kg by LC/MS/MS analysis; assay type: ADME, organism-based; set-up: dose 100 mg/kg; settings: in vivo
[28] = AUC in CD rat at 10 mg/kg by LC/MS/MS analysis; assay type: ADME, organism-based; set-up: dose 10 mg/kg; settings: plasma
[29] = Cytotoxicity against human MT4 cells after 48 hrs by WST assay; assay type: cell-based
[30] = Half life in beagle dog at 1 mg/kg, iv by LC/MS/MS analysis; assay type: ADME, organism-based, Canis lupus familiaris; set-up: dose 1 mg/kg, route intravenous; settings: in vivo
[31] = AUC in CD rat at 5 mg/kg by LC/MS/MS analysis; assay type: ADME, organism-based; set-up: dose 5 mg/kg; settings: plasma
[32] = biological target: T1, Voltage-gated inwardly rectifying potassium channel KCNH2; assay: Inhibition of human ERG by patch-clamp technique
[33] = Cmax in CD rat at 5 mg/kg by LC/MS/MS analysis; assay type: ADME, organism-based; set-up: dose 5 mg/kg; settings: in vivo
[34] = Solubility of the compound in neutral aqueous media at pH 6.8; assay type: physicochemical
[35] = biological target: T1, Voltage-gated inwardly rectifying potassium channel KCNH2; assay: Inhibition of human ERG expressed in CHO cells
[36] = Oral bioavailability in CD rat at 5 mg/kg by LC/MS/MS analysis; assay type: ADME, organism-based; settings: in vivo
[37] = AUC in CD rat at 1000 mg/kg by LC/MS/MS analysis; assay type: ADME, organism-based; set-up: dose 1000 mg/kg; settings: plasma
[38] = Oral bioavailability in beagle dog at 5 mg/kg by LC/MS/MS analysis; assay type: ADME, organism-based, Canis lupus familiaris; settings: in vivo
[39] = Solubility of the compound in phosphate buffered saline at pH 7.4 after 1 hr by chemiluminescence nitrogen detection assay; assay type: physicochemical
[40] = tested on: Rattus norvegicus; assay: Toxicity in rat at 10 to 1000 mg/kg/day, po qd for 7 days; assay type: organism-based; set-up: route oral; settings: in vivo, 168 h
[41] = tested on: Canis familiaris; assay: Hepatotoxicity in beagle dog at 10 to 600 mg/kg/day, po qd for 7 days; assay type: toxicity, organism-based, Canis lupus familiaris; set-up: route oral; settings: in vivo, 168 h

T1 sequence (Q12809 whole entry): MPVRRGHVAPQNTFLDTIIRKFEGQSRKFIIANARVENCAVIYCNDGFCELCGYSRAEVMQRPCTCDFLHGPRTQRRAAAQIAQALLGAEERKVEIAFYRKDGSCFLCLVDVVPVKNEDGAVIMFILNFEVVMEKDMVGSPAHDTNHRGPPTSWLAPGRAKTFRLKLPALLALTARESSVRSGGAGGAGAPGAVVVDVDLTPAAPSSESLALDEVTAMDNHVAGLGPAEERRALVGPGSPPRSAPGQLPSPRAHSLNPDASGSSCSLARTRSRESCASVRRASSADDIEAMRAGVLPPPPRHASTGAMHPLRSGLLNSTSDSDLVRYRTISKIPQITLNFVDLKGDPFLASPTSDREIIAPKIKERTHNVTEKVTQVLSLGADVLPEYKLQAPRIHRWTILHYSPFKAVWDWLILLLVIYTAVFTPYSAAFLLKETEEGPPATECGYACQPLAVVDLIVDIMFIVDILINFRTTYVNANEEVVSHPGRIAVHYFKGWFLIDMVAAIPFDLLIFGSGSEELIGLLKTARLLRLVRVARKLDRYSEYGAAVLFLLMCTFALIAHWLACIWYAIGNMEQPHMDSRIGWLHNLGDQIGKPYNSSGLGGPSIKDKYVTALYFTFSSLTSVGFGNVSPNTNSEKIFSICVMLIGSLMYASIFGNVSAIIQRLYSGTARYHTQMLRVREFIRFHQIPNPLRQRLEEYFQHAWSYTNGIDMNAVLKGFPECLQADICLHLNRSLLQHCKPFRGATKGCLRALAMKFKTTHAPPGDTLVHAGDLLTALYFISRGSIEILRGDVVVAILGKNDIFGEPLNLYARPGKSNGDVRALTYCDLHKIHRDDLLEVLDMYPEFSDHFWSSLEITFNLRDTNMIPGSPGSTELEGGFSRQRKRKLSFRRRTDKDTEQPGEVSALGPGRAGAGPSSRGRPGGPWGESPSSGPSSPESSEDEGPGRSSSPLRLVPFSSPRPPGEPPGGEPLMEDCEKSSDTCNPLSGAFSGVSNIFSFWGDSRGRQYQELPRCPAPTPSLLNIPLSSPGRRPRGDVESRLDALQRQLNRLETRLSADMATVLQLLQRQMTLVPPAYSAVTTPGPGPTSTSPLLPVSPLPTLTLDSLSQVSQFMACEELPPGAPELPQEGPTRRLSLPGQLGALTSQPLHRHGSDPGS

With CCCOc1cnc(-c2cc(Cn3cc4nc(-c5cccc(F)c5F)nc-4cn3)on2)cn1 as the compound, how does the pEC50 [1] read?
The pEC50 was 6.66.

What about the pEC50 [2] of the same compound?
The pEC50 was 5.85.

With CCCOc1ccc(-c2cnc(Cn3cc4nc(-c5cccc(F)c5F)nc-4cn3)cn2)c(C(F)(F)F)c1 as the compound, how does the pEC50 [1] read?
Its pEC50 is 7.52.

And the pEC50 [2]?
The pEC50 was 7.22.

Which results are given for Fc1cccc(-c2nc3cnn(Cc4cc(-c5ccc(C(F)(F)F)cc5C(F)(F)F)no4)cc-3n2)c1F?
pIC50 [3]: < 4.30; fraction unbound at 4 h, 5 µM [4]: 0.002; Cmax [5]: 7200 ng/mL; solubility [6]: < 0.01 µg/mL; AUC [7]: 102000 ng·h/mL; AUC [8]: 6300 ng·h/mL; AUC [9]: 2000 ng·h/mL; pEC50 [1]: 7.80; CLint scaled [10]: < 10 mL/min/kg; Vd [11]: 0.57 L/kg; clearance [12]: 3 mL/min/kg; Cmax [13]: 1900 ng/mL; AUC [14]: 98000 ng·h/mL; bioavailability [15]: 109%; CLint scaled [16]: < 10 mL/min/kg; pIC50 [17]: < 4.30; bioavailability [18]: 18.8%; pEC50 [2]: 6.92; clearance [19]: 2.7 mL/min/kg; pIC50 [20]: < 4.30; half-life [21]: 3.1 h; Cmax [22]: 2900 ng/mL; CC50 at 48 h [23]: > 50 µM; Vd [24]: 0.83 L/kg; CC50 at 48 h [25]: > 50 µM; AUC [26]: 31000 ng·h/mL; Cmax [27]: 7400 ng/mL; AUC [28]: 25000 ng·h/mL; CC50 at 48 h [29]: > 50 µM; half-life [30]: 6.9 h

Which Cmax [5] does the source give for Fc1cccc(-c2nc3cnn(Cc4ccc(-c5ccc(C(F)(F)F)cc5C(F)(F)F)nc4)cc-3n2)c1F here?
Its Cmax is 2800 ng/mL.

What about the AUC [7] of the same compound?
The AUC was 69000 ng·h/mL.

What about the AUC [8] of the same compound?
Its AUC is 1500 ng·h/mL.

And the AUC [31]?
The AUC was 8000 ng·h/mL.

And the pEC50 [1]?
Its pEC50 is 7.80.

And the CLint scaled [10]?
The CLint scaled was 22 mL/min/kg.

And the Vd [11]?
Its Vd is 2.04 L/kg.

What about the pEC50 [32] of the same compound?
The pEC50 was 5.10.

And the clearance [12]?
The clearance was 9 mL/min/kg.

What about the Cmax [33] of the same compound?
Its Cmax is 1100 ng/mL.

And the Cmax [13]?
The Cmax was 2700 ng/mL.

And the AUC [14]?
Its AUC is 24000 ng·h/mL.

What about the bioavailability [15] of the same compound?
Its bioavailability is 78%.

What about the pEC50 [2] of the same compound?
Its pEC50 is 6.80.

And the half-life [21]?
Its half-life is 3.14 h.

What about the Cmax [22] of the same compound?
The Cmax was 27300 ng/mL.

What about the AUC [26] of the same compound?
The AUC was 280000 ng·h/mL.

What about the Cmax [27] of the same compound?
The Cmax was 7600 ng/mL.

What about the solubility [34] of the same compound?
The solubility was 9 µg/mL (≈ 16.8 µM).

And the AUC [28]?
Its AUC is 24000 ng·h/mL.

With Fc1cccc(-c2nc3cnn(Cc4ccc(-c5ccc(C(F)(F)F)cc5C(F)(F)F)cc4)cc-3n2)c1F as the compound, how does the pEC50 [1] read?
The pEC50 was 7.74.

What about the pEC50 [2] of the same compound?
Its pEC50 is 6.92.

With Fc1ccccc1-c1nc2ccn(Cc3ccc(-c4ccc(C(F)(F)F)cc4C(F)(F)F)nn3)cc-2n1 [TEGOBUVIR] as the compound, how does the pEC50 [1] read?
The pEC50 was 8.30.

With Fc1ccccc1-c1nc2ccn(Cc3cc(-c4ccc(C(F)(F)F)cc4C(F)(F)F)no3)cc-2n1 as the compound, how does the pIC50 [35] read?
The pIC50 was 6.10.

With Fc1ccccc1-c1nc2cnn(Cc3cc(-c4ccc(C(F)(F)F)cc4C(F)(F)F)no3)cc-2n1 as the compound, how does the pEC50 [1] read?
Its pEC50 is 6.96.

What about the pEC50 [2] of the same compound?
The pEC50 was 5.43.

Which bioavailability [36] does the source give for CCCOc1ccc(-c2cc(C(C(=O)OCCOCCO)n3cc4nc(-c5cccc(F)c5F)nc-4cn3)on2)c(C(F)(F)F)c1 (centres undefined) here?
The bioavailability was 98%.

And the AUC [37]?
The AUC was 325000 ng·h/mL.

And the pEC50 [1]?
Its pEC50 is 8.52.

And the bioavailability [38]?
Its bioavailability is 91%.

And the pEC50 [2]?
Its pEC50 is 7.96.

What about the solubility kinetic at 1 h [39] of the same compound?
Its solubility kinetic at 1 h is 24 µM (≈ 15.5 µg/mL).

What about the Activity [40] of the same compound?
Its Activity is “Non-toxic”.

And the Activity [41]?
Its Activity is “Toxic”.

With CC(C)(c1cc(-c2ccc(C(F)(F)F)cc2C(F)(F)F)no1)n1cc2nc(-c3cccc(F)c3F)nc-2cn1 as the compound, how does the pEC50 [1] read?
The pEC50 was 5.82.

What about the pEC50 [2] of the same compound?
Its pEC50 is 5.27.

With CCCOc1ccc(-c2cnc(Cn3cc4nc(-c5cccc(F)c5F)nc-4cn3)nc2)c(C(F)(F)F)c1 as the compound, how does the pEC50 [1] read?
The pEC50 was 6.62.

What about the pEC50 [2] of the same compound?
The pEC50 was 6.52.

With CCCCc1ccc(-c2cc(Cn3cc4nc(-c5cccc(F)c5F)nc-4cn3)on2)cc1 as the compound, how does the pEC50 [1] read?
The pEC50 was 8.00.

What about the pEC50 [2] of the same compound?
Its pEC50 is 7.10.

With CCCOc1ccc(-c2ccc(Cn3cc4nc(-c5cccc(F)c5F)nc-4cn3)nn2)c(C(F)(F)F)c1 as the compound, how does the pEC50 [1] read?
The pEC50 was 8.15.

What about the pEC50 [2] of the same compound?
The pEC50 was 7.74.

With Fc1ccccc1-c1nc2cnn(Cc3cc(-c4ccc(Cl)cc4)no3)cc-2n1 as the compound, how does the pEC50 [1] read?
The pEC50 was 6.77.

With CCCOc1ccc(-c2cc(Cn3cc4nc(-c5cccc(F)c5F)nc-4cn3)no2)cc1 as the compound, how does the pEC50 [1] read?
Its pEC50 is 7.40.

And the pEC50 [2]?
Its pEC50 is 6.96.

— ChEMBL document CHEMBL3120081, “Imidazopyridazine hepatitis C virus polymerase inhibitors. Structure-activity relationship studies and the discovery of a novel, traceless prodrug mechanism” (J Med Chem, 2014)
